From doi:10.1101/2024.08.19.608619, “Discovery of potent SARS-CoV-2 nsp3 macrodomain inhibitors uncovers lack of translation to cellular antiviral response” (bioRxiv, 2024)
Values after ≈ are worked out from the molar mass of the structure shown. Values joined by “and” are separate entries in the source; they are usually repeats but may differ in a detail not shown here. Identical values can stand only once. Like-named read-outs stand apart in the source and are kept apart here.

Key:
M3 (h) = molecular target: T1, M3 (h) (Homo sapiens, UniProt P20309); assay: In vitro CEREP profiling, M3 (h) (antagonist radioligand); format: binding; details: test compound concentration 10 uM
T1 construct: purchased Eurofins Cerep (SafetyScreen44), recognised from the panel format
Text: (§1) Supplement media-1.zip/Safety_Panel_Profile.csv, table | column: perc_inhibition

CCK1 (CCKA) (h) = molecular target: T2, CCK1 (CCKA) (h) (Homo sapiens, UniProt P32238); assay: In vitro CEREP profiling, CCK1 (CCKA) (h) (agonist radioligand); format: binding; details: test compound 10 uM
T2 construct: purchased Eurofins Cerep (SafetyScreen44), recognised from the panel format
T2 sequence (P32238 1-428): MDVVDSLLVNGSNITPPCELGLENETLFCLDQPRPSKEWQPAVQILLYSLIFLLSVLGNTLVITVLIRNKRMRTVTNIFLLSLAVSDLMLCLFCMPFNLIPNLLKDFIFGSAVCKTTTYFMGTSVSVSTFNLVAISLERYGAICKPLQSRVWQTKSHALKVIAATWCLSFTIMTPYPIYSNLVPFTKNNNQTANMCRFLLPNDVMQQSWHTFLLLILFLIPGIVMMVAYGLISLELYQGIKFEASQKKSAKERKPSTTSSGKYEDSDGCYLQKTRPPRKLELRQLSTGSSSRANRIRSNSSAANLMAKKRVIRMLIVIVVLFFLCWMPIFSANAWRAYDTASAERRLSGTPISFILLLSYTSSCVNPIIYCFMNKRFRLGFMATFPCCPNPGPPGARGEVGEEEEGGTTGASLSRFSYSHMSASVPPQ
Text: as §1

CB1 (h) = molecular target: T3, CB1 (h) (Homo sapiens, UniProt P21554); assay: In vitro CEREP profiling, CB1 (h) (agonist radioligand); format: binding; details: test compound 10 uM
T3 construct: purchased Eurofins Cerep (SafetyScreen44), recognised from the panel format
Text: as §1

[1] = In vitro rat SD liver microsomal stability; format: in vitro ADME
Text: Supplement media-1.zip/Hepatic_Microsomal_Stability.csv, table | column: clint; t_half

PKA(h) = molecular target: T4, PKA(h) (Homo sapiens, UniProt P17612); assay: biochemical; set-up: In vitro kinase panel profiling, per cent remaining kinase activity at 10 uM; details: atp_concentration=10, read-out: % of control remaining
T4 construct: gene PRKACA
Text: (§2) We derisk potential for off-target activity by profiling the compound in a CEREP panel, a standard secondary pharmacology assessment, as well as a kinase panel to derisk a potential hinge-binding motif in our leads, and a PARP panel to derisk activity against human […]. Reassuringly, the compounds are selective, with the only off-targets being moderate human CHRM2 and KOR receptors activity associated with ASAP-0011198.

MSK2(h) = molecular target: T5, MSK2(h) (Homo sapiens, UniProt O75676); assay: biochemical; set-up: In vitro kinase panel profiling, per cent remaining kinase activity at 10 uM; details: atp_concentration=45, read-out: % of control remaining
T5 construct: gene RPS6KA4
Text: as §2

COX1(h) = molecular target: T6, COX1(h) (Homo sapiens, UniProt P23219); assay: In vitro CEREP profiling, COX1(h); format: biochemical; details: test compound concentration 10 uM; Enzyme and Cell-based assays
T6 construct: purchased Eurofins Cerep (SafetyScreen44), recognised from the panel format
Text: as §1

HeLa-ACE2 cells = details: for perc_max_measured: highest measured response of the dose series; for perc_min_measured: lowest measured response of the dose series
5-HT2B (h) = molecular target: T7, 5-HT2B (h) (Homo sapiens, UniProt P41595); assay: In vitro CEREP profiling, 5-HT2B (h) (agonist radioligand); format: binding; details: test compound concentration 10 uM
T7 construct: purchased Eurofins Cerep (SafetyScreen44), recognised from the panel format
Text: as §1

5-HT3 (h) = molecular target: T8, 5-HT3 (h) (Homo sapiens, UniProt P46098); assay: In vitro CEREP profiling, 5-HT3 (h) (antagonist radioligand); format: binding; details: test compound concentration 10 uM
T8 construct: purchased Eurofins Cerep (SafetyScreen44), recognised from the panel format
T8 sequence (P46098 24-478): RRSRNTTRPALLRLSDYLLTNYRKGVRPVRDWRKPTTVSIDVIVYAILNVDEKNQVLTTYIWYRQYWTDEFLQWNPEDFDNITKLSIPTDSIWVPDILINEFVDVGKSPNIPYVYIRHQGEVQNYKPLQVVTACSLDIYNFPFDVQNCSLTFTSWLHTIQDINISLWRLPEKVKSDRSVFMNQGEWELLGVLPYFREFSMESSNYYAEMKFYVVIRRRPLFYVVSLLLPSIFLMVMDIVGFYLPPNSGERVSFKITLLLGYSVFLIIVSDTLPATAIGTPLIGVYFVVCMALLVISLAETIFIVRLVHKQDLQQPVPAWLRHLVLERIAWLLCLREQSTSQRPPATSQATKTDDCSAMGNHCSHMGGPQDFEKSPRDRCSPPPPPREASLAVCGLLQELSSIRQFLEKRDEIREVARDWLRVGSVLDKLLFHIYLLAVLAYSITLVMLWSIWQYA
Text: as §1

[2] = In vitro kinetic solubility; details: In vitro kinetic solubility, ph 7.4
A2A (h) = molecular target: T9, A2A (h) (Homo sapiens, UniProt P29274); assay: In vitro CEREP profiling, A2A (h) (agonist radioligand); format: binding; details: test compound 10 uM
T9 construct: purchased Eurofins Cerep (SafetyScreen44), recognised from the panel format
Text: as §1

dopamine transporter (h) = molecular target: T10, dopamine transporter (h) (Homo sapiens, UniProt Q01959); assay: In vitro CEREP profiling, dopamine transporter (h) (antagonist radioligand); format: binding; details: test compound concentration 10 uM
T10 construct: purchased Eurofins Cerep (SafetyScreen44), recognised from the panel format
Text: as §1

[3] = In vitro dog hepatocyte stability; format: in vitro ADME
Text: Supplement media-1.zip/Hepatocyte_Stability.csv, table | column: clint; t_half

beta2 (h) = molecular target: T11, beta2 (h) (Homo sapiens, UniProt P07550); assay: In vitro CEREP profiling, beta2 (h) (antagonist radioligand); format: binding; details: test compound 10 uM
T11 construct: purchased Eurofins Cerep (SafetyScreen44), recognised from the panel format
Text: as §1

H2 (h) = molecular target: T12, H2 (h) (Homo sapiens, UniProt P25021); assay: In vitro CEREP profiling, H2 (h) (antagonist radioligand); format: binding; details: test compound concentration 10 uM
T12 construct: purchased Eurofins Cerep (SafetyScreen44), recognised from the panel format
Text: as §1

[4] = molecular target: T13, Potassium Channel hERG (human) (Homo sapiens, UniProt Q12809); assay: In vitro CEREP profiling, Potassium Channel hERG (human)- [3H] Dofetilide; format: binding; details: test compound concentration 10 uM
T13 construct: purchased Eurofins Cerep (SafetyScreen44), recognised from the panel format
Text: as §1

D2S (h) = molecular target: T14, D2S (h) (Homo sapiens, UniProt P14416); assay: In vitro CEREP profiling, D2S (h) (agonist radioligand); format: binding; details: test compound 10 uM
T14 construct: purchased Eurofins Cerep (SafetyScreen44), recognised from the panel format
Text: as §1

LogD = details: pH 7.4; In vitro LogD
5-HT1B (h) = molecular target: T15, 5-HT1B (h) (Homo sapiens, UniProt P28222); assay: In vitro CEREP profiling, 5-HT1B (h) (antagonist radioligand); format: binding; details: test compound concentration 10 uM
T15 construct: purchased Eurofins Cerep (SafetyScreen44), recognised from the panel format
Text: as §1

[5] = protocol HeLa-ACE2 cytotoxicity

T11 sequence (P07550 whole entry): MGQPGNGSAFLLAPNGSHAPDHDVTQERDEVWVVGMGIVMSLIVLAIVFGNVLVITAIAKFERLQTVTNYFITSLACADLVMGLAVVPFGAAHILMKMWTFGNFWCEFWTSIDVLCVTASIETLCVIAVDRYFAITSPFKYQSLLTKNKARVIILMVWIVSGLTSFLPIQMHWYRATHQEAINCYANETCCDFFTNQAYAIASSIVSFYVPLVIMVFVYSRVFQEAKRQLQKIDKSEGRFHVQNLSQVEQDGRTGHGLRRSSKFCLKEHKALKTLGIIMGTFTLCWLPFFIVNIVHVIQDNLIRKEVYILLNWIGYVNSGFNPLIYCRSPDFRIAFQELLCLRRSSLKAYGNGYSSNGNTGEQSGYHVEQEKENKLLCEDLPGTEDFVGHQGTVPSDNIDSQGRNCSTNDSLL
T14 sequence (P14416 1-414 isoform P14416-2): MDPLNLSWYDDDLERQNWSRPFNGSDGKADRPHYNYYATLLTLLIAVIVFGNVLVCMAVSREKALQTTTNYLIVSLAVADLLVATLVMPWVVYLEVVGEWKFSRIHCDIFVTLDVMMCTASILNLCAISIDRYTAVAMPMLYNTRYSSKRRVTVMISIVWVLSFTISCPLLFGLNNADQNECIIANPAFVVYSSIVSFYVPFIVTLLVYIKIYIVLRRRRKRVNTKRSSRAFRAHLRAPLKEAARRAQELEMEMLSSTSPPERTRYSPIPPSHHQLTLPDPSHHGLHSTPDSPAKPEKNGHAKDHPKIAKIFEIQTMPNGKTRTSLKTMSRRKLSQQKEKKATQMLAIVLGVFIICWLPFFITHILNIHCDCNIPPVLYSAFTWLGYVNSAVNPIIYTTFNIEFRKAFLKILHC
T1 sequence (P20309 whole entry): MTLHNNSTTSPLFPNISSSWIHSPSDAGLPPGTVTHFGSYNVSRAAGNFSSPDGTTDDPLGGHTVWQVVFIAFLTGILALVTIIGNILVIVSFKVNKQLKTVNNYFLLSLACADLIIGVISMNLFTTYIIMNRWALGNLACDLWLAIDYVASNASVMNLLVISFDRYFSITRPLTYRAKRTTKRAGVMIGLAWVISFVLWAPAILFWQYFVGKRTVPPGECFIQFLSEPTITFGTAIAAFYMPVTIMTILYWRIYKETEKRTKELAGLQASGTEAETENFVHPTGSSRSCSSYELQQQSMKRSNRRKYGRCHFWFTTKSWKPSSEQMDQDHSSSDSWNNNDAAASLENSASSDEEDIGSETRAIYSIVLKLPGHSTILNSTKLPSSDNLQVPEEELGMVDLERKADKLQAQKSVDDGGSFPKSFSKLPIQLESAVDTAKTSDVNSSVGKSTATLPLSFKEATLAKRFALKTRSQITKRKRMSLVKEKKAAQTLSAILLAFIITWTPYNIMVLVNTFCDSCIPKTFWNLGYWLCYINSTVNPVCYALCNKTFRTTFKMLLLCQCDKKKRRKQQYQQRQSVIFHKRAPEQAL
T15 sequence (P28222 whole entry): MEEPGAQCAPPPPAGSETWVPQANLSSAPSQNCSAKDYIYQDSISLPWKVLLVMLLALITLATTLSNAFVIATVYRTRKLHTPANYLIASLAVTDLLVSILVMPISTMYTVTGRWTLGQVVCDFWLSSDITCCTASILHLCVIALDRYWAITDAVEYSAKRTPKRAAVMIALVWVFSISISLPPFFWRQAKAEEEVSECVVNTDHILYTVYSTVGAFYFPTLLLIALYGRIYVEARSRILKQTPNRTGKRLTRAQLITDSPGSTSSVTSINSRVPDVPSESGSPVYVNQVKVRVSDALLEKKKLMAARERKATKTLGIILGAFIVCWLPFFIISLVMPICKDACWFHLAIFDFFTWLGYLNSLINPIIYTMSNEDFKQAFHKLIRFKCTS
T7 sequence (P41595 whole entry): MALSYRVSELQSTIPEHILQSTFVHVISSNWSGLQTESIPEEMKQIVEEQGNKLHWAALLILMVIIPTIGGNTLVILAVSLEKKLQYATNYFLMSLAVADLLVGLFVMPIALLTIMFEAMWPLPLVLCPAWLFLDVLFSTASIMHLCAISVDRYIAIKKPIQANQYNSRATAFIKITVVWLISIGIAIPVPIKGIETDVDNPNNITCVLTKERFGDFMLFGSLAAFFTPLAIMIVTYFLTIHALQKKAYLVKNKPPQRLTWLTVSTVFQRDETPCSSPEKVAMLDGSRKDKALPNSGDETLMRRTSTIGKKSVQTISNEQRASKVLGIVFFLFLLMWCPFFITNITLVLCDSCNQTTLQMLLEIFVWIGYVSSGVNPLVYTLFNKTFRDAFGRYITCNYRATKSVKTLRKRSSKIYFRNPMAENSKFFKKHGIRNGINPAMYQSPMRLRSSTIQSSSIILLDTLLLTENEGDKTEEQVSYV
T9 sequence (P29274 whole entry): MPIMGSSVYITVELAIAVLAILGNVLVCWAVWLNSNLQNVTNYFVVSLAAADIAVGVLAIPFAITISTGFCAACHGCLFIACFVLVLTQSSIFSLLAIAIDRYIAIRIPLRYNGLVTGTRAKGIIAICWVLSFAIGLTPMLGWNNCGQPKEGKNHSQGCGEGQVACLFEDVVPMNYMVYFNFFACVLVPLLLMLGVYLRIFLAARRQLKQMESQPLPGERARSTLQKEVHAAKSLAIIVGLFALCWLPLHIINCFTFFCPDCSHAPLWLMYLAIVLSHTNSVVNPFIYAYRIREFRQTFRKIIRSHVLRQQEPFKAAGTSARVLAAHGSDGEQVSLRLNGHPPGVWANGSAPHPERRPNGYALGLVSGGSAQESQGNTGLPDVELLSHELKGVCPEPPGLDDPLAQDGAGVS
T13 sequence (Q12809 whole entry): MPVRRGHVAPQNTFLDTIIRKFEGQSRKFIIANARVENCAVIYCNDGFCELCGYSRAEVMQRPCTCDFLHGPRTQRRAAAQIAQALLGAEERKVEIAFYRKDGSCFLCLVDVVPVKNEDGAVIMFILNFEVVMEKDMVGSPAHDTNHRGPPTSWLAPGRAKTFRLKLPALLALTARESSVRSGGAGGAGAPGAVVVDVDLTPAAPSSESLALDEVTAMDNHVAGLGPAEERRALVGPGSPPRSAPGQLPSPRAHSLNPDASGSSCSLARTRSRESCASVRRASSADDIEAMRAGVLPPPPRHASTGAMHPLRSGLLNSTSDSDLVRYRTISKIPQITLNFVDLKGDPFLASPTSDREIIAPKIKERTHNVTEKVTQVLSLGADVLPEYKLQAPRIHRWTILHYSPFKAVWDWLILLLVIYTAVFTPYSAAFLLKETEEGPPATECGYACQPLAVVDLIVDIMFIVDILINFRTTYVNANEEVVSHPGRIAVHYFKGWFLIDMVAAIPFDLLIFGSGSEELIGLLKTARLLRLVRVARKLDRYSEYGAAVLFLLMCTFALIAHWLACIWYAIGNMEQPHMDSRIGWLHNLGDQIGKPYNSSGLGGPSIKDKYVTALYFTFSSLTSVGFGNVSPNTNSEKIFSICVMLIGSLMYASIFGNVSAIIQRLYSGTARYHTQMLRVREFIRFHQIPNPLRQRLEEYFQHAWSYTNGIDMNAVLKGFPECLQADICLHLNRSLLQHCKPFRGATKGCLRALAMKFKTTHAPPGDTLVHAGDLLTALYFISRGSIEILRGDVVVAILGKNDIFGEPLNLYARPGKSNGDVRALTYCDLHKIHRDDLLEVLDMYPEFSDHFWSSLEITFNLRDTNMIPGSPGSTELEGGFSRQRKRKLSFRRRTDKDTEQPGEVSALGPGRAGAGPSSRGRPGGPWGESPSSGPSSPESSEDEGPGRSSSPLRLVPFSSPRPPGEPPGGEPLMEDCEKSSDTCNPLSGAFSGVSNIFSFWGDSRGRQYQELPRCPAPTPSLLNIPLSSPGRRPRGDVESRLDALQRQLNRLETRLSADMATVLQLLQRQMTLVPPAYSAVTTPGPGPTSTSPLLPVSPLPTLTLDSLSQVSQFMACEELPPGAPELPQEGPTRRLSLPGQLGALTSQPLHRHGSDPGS
T12 sequence (P25021 whole entry): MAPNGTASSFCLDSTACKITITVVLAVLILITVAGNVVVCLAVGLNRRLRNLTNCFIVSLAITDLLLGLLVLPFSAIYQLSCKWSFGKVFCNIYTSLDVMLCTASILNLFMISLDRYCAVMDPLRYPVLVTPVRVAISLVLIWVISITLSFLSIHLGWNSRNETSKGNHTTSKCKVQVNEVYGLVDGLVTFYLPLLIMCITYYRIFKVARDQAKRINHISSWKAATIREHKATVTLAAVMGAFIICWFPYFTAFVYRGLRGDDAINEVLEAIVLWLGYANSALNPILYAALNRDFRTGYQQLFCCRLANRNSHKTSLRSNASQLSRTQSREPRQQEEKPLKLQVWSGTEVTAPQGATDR
T3 sequence (P21554 whole entry): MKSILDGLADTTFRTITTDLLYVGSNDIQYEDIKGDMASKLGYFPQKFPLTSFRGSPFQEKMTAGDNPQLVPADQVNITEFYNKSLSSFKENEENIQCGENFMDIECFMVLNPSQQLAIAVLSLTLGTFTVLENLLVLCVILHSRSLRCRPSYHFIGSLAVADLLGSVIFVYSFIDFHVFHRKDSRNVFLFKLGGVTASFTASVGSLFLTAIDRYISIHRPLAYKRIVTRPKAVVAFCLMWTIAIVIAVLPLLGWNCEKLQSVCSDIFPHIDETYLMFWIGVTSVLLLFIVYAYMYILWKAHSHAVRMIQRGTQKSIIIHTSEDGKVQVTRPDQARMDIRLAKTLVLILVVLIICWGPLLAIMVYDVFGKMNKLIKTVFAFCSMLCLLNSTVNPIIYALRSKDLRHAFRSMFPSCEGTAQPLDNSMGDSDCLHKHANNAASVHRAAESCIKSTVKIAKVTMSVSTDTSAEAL

| SMILES | perc_inhibition (% inhibition of the binding of a ligand specific for each target) (M3 (h)) [%] | perc_inhibition (% inhibition of the binding of a ligand specific for each target) (CCK1 (CCKA) (h)) [%] | perc_inhibition (% inhibition of the binding of a ligand specific for each target) (CB1 (h)) [%] | clint [1] [µL/min/mg] | t_half [1] [min] | perc_inhibition: % inhibition of control enzyme activity, COX1(h) (COX1(h)) [%] | CC50 (HeLa-ACE2 cells; HeLa-ACE2 cytotoxicity) [µM] | cc10 (HeLa-ACE2 cells; HeLa-ACE2 cytotoxicity) | perc_max_measured (HeLa-ACE2 cells; HeLa-ACE2 cytotoxicity) | perc_min_measured (HeLa-ACE2 cells; HeLa-ACE2 cytotoxicity) | perc_inhibition (% inhibition of the binding of a ligand specific for each target) (5-HT2B (h)) [%] | perc_inhibition (% inhibition of the binding of a ligand specific for each target) (5-HT3 (h)) [%] | solubility_mean [2] [µM] | perc_inhibition (% inhibition of the binding of a ligand specific for each target) (A2A (h)) [%] | perc_inhibition (% inhibition of the binding of a ligand specific for each target) (dopamine transporter (h)) [%] | clint [3] [uL/min/1E6 cells] | t_half [3] [min] | perc_inhibition (% inhibition of the binding of a ligand specific for each target) (beta2 (h)) [%] | perc_inhibition (% inhibition of the binding of a ligand specific for each target) (H2 (h)) [%] | perc_inhibition (% inhibition of the binding of a ligand specific for each target) [4] [%] | other results |
| --- | --- | --- | --- | --- | --- | --- | --- | --- | --- | --- | --- | --- | --- | --- | --- | --- | --- | --- | --- | --- | --- |
| CNCc1cc(-c2cc3c(N[C@@H](c4ccc5c(c4)S(=O)(=O)CCC5)C(C)C)ncnc3[nH]2)co1 [ASAP-0011176] | 5 | -24 | 3 | 21.4 | 32.4 | -6 | > 20 | > 20.0 µM | 120.991% | 77.721% | -11 | 0 | 345 (≈ 165 µg/mL) | 21 | 50 | 7.3 | 94.9 | 6 | -3 | 26 | remaining activity at 10 µM (PKA(h); batch_name=ASAP-0011176-002): 96%; remaining activity at 10 µM (MSK2(h); batch_name=ASAP-0011176-002): 91%; CC50 (HeLa-ACE2 cells; [5]): > 20 µM; cc10 (HeLa-ACE2 cells; [5]): > 20.0 µM; perc_max_measured (HeLa-ACE2 cells; [5]): 106.042%; perc_min_measured (HeLa-ACE2 cells; [5]): 91.552%; perc_inhibition (% inhibition of the binding of a ligand specific for each target) (D2S (h)): -9%; logd (LogD): 2.2; perc_inhibition (% inhibition of the binding of a ligand specific for each target) (5-HT1B (h)): 45% |
| Cn1ncc(-c2cc3c(N[C@@H](c4ccc5c(n4)OCCO5)C(C)(C)C)ncnc3[nH]2)c1C#N [ASAP-0011221] | -8 | 4 | 33 | 129.0 | 5.38 | -14 | > 20 | > 10.0 µM and > 20.0 µM | 97.859% and 124.489% | 51.321% and 74.575% | -5 | 3 | 24 (≈ 10.7 µg/mL) | 52 | 50 | 3.81 | 182.0 | 4 | -10 | 36 | remaining activity at 10 µM (PKA(h); batch_name=ASAP-0011221-002): 95%; remaining activity at 10 µM (MSK2(h); batch_name=ASAP-0011221-002): 122%; perc_inhibition (% inhibition of the binding of a ligand specific for each target) (D2S (h)): 13%; logd (LogD): 3.3; perc_inhibition (% inhibition of the binding of a ligand specific for each target) (5-HT1B (h)): 18% |
